Literature values in patent US11661349B2, “Method for making coffee husk reducing agent” (Imam Abdulrahman Bin Faisal University, priority 2019, dated 2023).

Key:
Aspergillus flavus = details: A. flavus; from Elefanti et al. 2013
Aspergillus niger = details: A. niger; from Elefanti et al. 2013

OC(Cn1cncn1)(Cn1cncn1)c1ccc(F)cc1F [Flucanazole]
100 µg/mL: MFC (Minimum Fungicidal Concentration) (Aspergillus flavus) | MIC (Aspergillus flavus) | MFC (Minimum Fungicidal Concentration) (Aspergillus niger) | MIC (Aspergillus niger)
